According to ChEMBL document CHEMBL1133317, “The solid phase synthesis of tetrahydroisoquinolines having cdc25B inhibitory activity” (Bioorg Med Chem Lett, 2000):

target: T1, M-phase inducer phosphatase 2 (Homo sapiens, UniProt P30305); test: Compound was measured for its inhibitory activity against Cell division cycle 25B
T1 sequence (P30305 whole entry): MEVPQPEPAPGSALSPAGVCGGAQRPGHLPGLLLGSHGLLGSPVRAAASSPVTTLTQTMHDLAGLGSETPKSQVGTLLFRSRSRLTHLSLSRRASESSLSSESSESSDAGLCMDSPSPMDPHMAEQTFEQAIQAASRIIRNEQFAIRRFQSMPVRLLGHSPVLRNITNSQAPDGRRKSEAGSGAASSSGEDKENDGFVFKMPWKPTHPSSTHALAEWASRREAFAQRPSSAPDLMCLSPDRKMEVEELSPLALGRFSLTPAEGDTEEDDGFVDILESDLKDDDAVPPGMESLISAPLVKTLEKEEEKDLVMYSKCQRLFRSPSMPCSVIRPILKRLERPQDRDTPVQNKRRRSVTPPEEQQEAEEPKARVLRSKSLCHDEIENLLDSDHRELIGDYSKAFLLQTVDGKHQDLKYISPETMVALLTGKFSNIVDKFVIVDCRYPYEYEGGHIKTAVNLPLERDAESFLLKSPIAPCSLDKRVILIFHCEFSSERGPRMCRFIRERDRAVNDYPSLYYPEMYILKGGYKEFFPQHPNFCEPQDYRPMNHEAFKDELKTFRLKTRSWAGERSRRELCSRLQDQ

| Compound | IC50 [µM] |
| --- | --- |
| O=C(O)[C@@H]1Cc2cc(I)c(OCc3ccccc3F)c(I)c2CN1C(=O)/C=C/c1cccc(F)c1 | 75 |
| O=C(O)[C@@H]1Cc2cc(I)c(OCc3ccccc3F)c(I)c2CN1C(=O)CCc1ccccc1 | 80 |
| O=C(COc1c(I)cc2c(c1I)CN(C(=O)/C=C/c1cccc(Br)c1)[C@H](C(=O)O)C2)OCc1ccccc1 | 90 |
| O=C(O)[C@@H]1Cc2cc(I)c(OCc3ccc(Cl)cc3Cl)c(I)c2CN1C(=O)c1cccnc1Cl | > 100 |
| O=C(O)C1Cc2cc(I)c(OCc3c(Cl)cccc3Cl)c(I)c2CN1C(=O)C1CCCC1 (centres undefined) | 100 |
| O=C(O)[C@@H]1Cc2cc(I)c(OCc3ccccc3F)c(I)c2CN1C(=O)/C=C/c1cccc(Cl)c1 | 60 |
| O=C(COc1c(I)cc2c(c1I)CN(C(=O)/C(F)=C/c1ccccc1)[C@H](C(=O)O)C2)OCc1ccccc1 | 90 |
| O=C(COc1c(I)cc2c(c1I)CN(C(=O)/C=C/c1ccc(Br)cc1)[C@H](C(=O)O)C2)OCc1ccccc1 | 90 |
| COc1cccc(COc2c(I)cc3c(c2I)CN(C(=O)/C=C/c2ccc([N+](=O)[O-])cc2)[C@H](C(=O)O)C3)c1 | 59 |
| O=C(O)[C@@H]1Cc2cc(I)c(OCCCCl)c(I)c2CN1C(=O)/C=C/c1cccc(Br)c1 | 70 |
| O=C(O)[C@@H]1Cc2cc(I)c(OCc3cccc(C(F)(F)F)c3)c(I)c2CN1C(=O)/C=C/c1ccc(Cl)c(Cl)c1 | 75 |
| O=C(O)[C@@H]1Cc2cc(I)c(OCc3c(Cl)cccc3Cl)c(I)c2CN1C(=O)/C=C/c1ccc(Cl)c(Cl)c1 | 55 |
| COc1cc(/C=C/C(=O)N2Cc3c(cc(I)c(OCc4ccc(C(F)(F)F)cc4)c3I)C[C@H]2C(=O)O)cc(OC)c1OC | 57 |
| O=C(O)[C@@H]1Cc2cc(I)c(OCc3ccc(Cl)cc3Cl)c(I)c2CN1C(=O)/C=C/c1ccc2c(c1)OCO2 | 60 |
| COc1cccc(COc2c(I)cc3c(c2I)CN(C(=O)/C=C/c2ccc(Cl)cc2)[C@H](C(=O)O)C3)c1 | 75 |
| O=C(O)[C@@H]1Cc2cc(I)c(OCCCCl)c(I)c2CN1C(=O)/C(F)=C/c1ccccc1 | 100 |
| COc1cccc(COc2c(I)cc3c(c2I)CN(C(=O)/C=C/c2ccc(C)cc2)[C@H](C(=O)O)C3)c1 | 62 |
| O=C(O)[C@@H]1Cc2cc(I)c(OCc3ccccc3F)c(I)c2CN1C(=O)c1cccnc1Cl | 90 |
| O=C(COc1c(I)cc2c(c1I)CN(C(=O)/C=C/c1ccccc1Cl)[C@H](C(=O)O)C2)OCc1ccccc1 | 70 |
| O=C(O)[C@@H]1Cc2cc(I)c(OCc3c(Cl)cccc3Cl)c(I)c2CN1C(=O)CCc1ccccc1 | > 100 |
| O=C(O)[C@@H]1Cc2cc(I)c(OCc3ccc(C(F)(F)F)cc3)c(I)c2CN1C(=O)/C=C/c1ccccc1F | 55 |
| O=C(O)[C@@H]1Cc2cc(I)c(OCc3ccc(C(F)(F)F)cc3)c(I)c2CN1C(=O)/C=C/c1ccc([N+](=O)[O-])cc1 | 55 |
| COc1cccc(COc2c(I)cc3c(c2I)CN(C(=O)/C=C/c2ccc4c(c2)OCO4)[C@H](C(=O)O)C3)c1 | 58 |
| O=C(O)[C@@H]1Cc2cc(I)c(OCc3ccccc3F)c(I)c2CN1C(=O)/C=C/c1ccc(Cl)c(Cl)c1 | 75 |
| O=C(O)[C@@H]1Cc2cc(I)c(OCCCCl)c(I)c2CN1C(=O)/C=C/c1ccc(Cl)cc1Cl | 52 |
| O=C(O)[C@@H]1Cc2cc(I)c(OCCCCl)c(I)c2CN1C(=O)/C=C/c1ccc(Br)cc1 | 70 |
| O=C(O)[C@@H]1Cc2cc(I)c(OCc3cccc(C(F)(F)F)c3)c(I)c2CN1C(=O)/C=C/c1ccc2c(c1)OCO2 | 66 |

The next lines start with the values.

| IC50 [µM] | Compound |
| --- | --- |
| 50 | O=C(O)[C@@H]1Cc2cc(I)c(OCc3cccc(C(F)(F)F)c3)c(I)c2CN1C(=O)/C=C/c1cccc(C(F)(F)F)c1 |
| 50 | O=C(O)[C@@H]1Cc2cc(I)c(OCc3cccc(C(F)(F)F)c3)c(I)c2CN1C(=O)/C=C/c1ccc([N+](=O)[O-])cc1 |
| 50 | O=C(O)[C@@H]1Cc2cc(I)c(OCc3ccc(Cl)cc3Cl)c(I)c2CN1C(=O)CCc1ccccc1 |
| 50 | O=C(O)[C@@H]1Cc2cc(I)c(OCc3cccc(C(F)(F)F)c3)c(I)c2CN1C(=O)CCc1ccccc1 |
| 45 | O=C(COc1c(I)cc2c(c1I)CN(C(=O)/C=C/c1ccccc1Br)[C@H](C(=O)O)C2)OCc1ccccc1 |
| 45 | O=C(O)[C@@H]1Cc2cc(I)c(OCc3ccc(Cl)cc3Cl)c(I)c2CN1C(=O)/C=C/c1ccc([N+](=O)[O-])cc1 |
| 45 | O=C(O)[C@@H]1Cc2cc(I)c(OCc3c(Cl)cccc3Cl)c(I)c2CN1C(=O)c1cccnc1Cl |
| 45 | O=C(O)[C@@H]1Cc2cc(I)c(OCc3c(Cl)cccc3Cl)c(I)c2CN1C(=O)/C=C/c1cccc(F)c1 |
| 45 | O=C(O)[C@@H]1Cc2cc(I)c(OCc3ccccc3F)c(I)c2CN1C(=O)/C=C/c1cccc(C(F)(F)F)c1 |
| 45 | O=C(O)[C@@H]1Cc2cc(I)c(OCc3cccc(C(F)(F)F)c3)c(I)c2CN1C(=O)/C=C/c1cccc(F)c1 |
| 40 | O=C(O)[C@@H]1Cc2cc(I)c(OCc3cccc(C(F)(F)F)c3)c(I)c2CN1C(=O)/C=C/c1cccc(Cl)c1 |
| 40 | O=C(O)[C@@H]1Cc2cc(I)c(OCc3ccc(Cl)cc3Cl)c(I)c2CN1C(=O)/C=C/c1cccc(F)c1 |
| 40 | C/C(=C\c1ccccc1)C(=O)N1Cc2c(cc(I)c(OCc3ccc(Cl)cc3Cl)c2I)C[C@H]1C(=O)O |
| 40 | O=C(O)[C@@H]1Cc2cc(I)c(OCc3ccc(Cl)cc3Cl)c(I)c2CN1C(=O)/C=C/c1cccc(Br)c1 |
| 36 | O=C(O)[C@@H]1Cc2cc(I)c(OCc3ccc(Cl)cc3Cl)c(I)c2CN1C(=O)/C(F)=C/c1ccccc1 |
| 36 | O=C(O)[C@@H]1Cc2cc(I)c(OCc3cccc(C(F)(F)F)c3)c(I)c2CN1C(=O)/C=C/c1ccccc1C(F)(F)F |
| 35 | O=C(O)[C@@H]1Cc2cc(I)c(OCc3cccc(C(F)(F)F)c3)c(I)c2CN1C(=O)/C=C/c1ccccc1F |
| 35 | Cc1ccc(/C=C/C(=O)N2Cc3c(cc(I)c(OCc4ccc(C(F)(F)F)cc4)c3I)C[C@H]2C(=O)O)cc1 |
| 35 | O=C(O)[C@@H]1Cc2cc(I)c(OCc3c(Cl)cccc3Cl)c(I)c2CN1C(=O)/C=C/c1cccc(C(F)(F)F)c1 |

| IC50 [µM] | Compound |
| --- | --- |
| 35 | O=C(O)[C@@H]1Cc2cc(I)c(OCc3ccc(Cl)cc3Cl)c(I)c2CN1C(=O)/C=C/c1ccc(Cl)cc1 |
| 35 | O=C(O)[C@@H]1Cc2cc(I)c(OCc3ccc(Cl)cc3Cl)c(I)c2CN1C(=O)/C=C/c1cccc(Cl)c1 |
| 33 | O=C(O)[C@@H]1Cc2cc(I)c(OCc3ccc(Cl)cc3Cl)c(I)c2CN1C(=O)/C=C/c1ccccc1Br |
| 33 | O=C(O)[C@@H]1Cc2cc(I)c(OCCCCl)c(I)c2CN1C(=O)/C=C/c1ccccc1Br |
| 32 | O=C(O)[C@@H]1Cc2cc(I)c(OCc3ccc(C(F)(F)F)cc3)c(I)c2CN1C(=O)/C=C/c1ccc2c(c1)OCO2 |
| 30 | Cc1ccc(/C=C/C(=O)N2Cc3c(cc(I)c(OCc4cccc(C(F)(F)F)c4)c3I)C[C@H]2C(=O)O)cc1 |
| 30 | O=C(O)[C@@H]1Cc2cc(I)c(OCc3cccc(C(F)(F)F)c3)c(I)c2CN1C(=O)c1cccnc1Cl |
| 30 | O=C(O)[C@@H]1Cc2cc(I)c(OCc3ccc(C(F)(F)F)cc3)c(I)c2CN1C(=O)/C=C/c1cccc(F)c1 |
| 30 | O=C(O)[C@@H]1Cc2cc(I)c(OCc3ccc(Cl)cc3Cl)c(I)c2CN1C(=O)/C=C/c1ccc(Cl)c(Cl)c1 |
| 30 | O=C(O)[C@@H]1Cc2cc(I)c(OCc3ccc(C(F)(F)F)cc3)c(I)c2CN1C(=O)/C=C/c1ccc(Cl)cc1 |
| 28 | O=C(COc1c(I)cc2c(c1I)CN(C(=O)/C=C/c1ccc(Cl)cc1Cl)[C@H](C(=O)O)C2)OCc1ccccc1 |
| 27 | O=C(O)[C@@H]1Cc2cc(I)c(OCCCCl)c(I)c2CN1C(=O)/C=C/c1ccccc1Cl |
| 27 | O=C(O)[C@@H]1Cc2cc(I)c(OCc3ccc(C(F)(F)F)cc3)c(I)c2CN1C(=O)/C=C/c1ccccc1C(F)(F)F |
| 27 | Cc1ccc(/C=C/C(=O)N2Cc3c(cc(I)c(OCc4ccc(Cl)cc4Cl)c3I)C[C@H]2C(=O)O)cc1 |
| 23 | O=C(O)[C@@H]1Cc2cc(I)c(OCc3ccc(Cl)cc3Cl)c(I)c2CN1C(=O)/C=C/c1ccc(Br)cc1 |
| 23 | O=C(O)[C@@H]1Cc2cc(I)c(OCc3ccc(Cl)cc3Cl)c(I)c2CN1C(=O)/C=C/c1cc(Cl)cc(Cl)c1 |
| 20 | O=C(O)[C@@H]1Cc2cc(I)c(OCc3c(Cl)cccc3Cl)c(I)c2CN1C(=O)/C=C/c1cccc(Cl)c1 |
| 15 | O=C(O)[C@@H]1Cc2cc(I)c(OCc3ccc(Cl)cc3Cl)c(I)c2CN1C(=O)/C=C/c1cccc(C(F)(F)F)c1 |
| 15 | O=C(O)[C@@H]1Cc2cc(I)c(OCc3ccc(Cl)cc3Cl)c(I)c2CN1C(=O)/C=C/c1ccccc1Cl |

target: T2, M-phase inducer phosphatase 2 (Homo sapiens) (UniProt P30305); test: Inhibitory activity against Cell division cycle 25B at 100 uM
T2 sequence (whole entry): T1 sequence (P30305 whole entry)

| inhibition [%] | Compound |
| --- | --- |
| 22 | O=C(O)[C@@H]1Cc2cc(I)c(OCc3cccc(C(F)(F)F)c3)c(I)c2CN1C(=O)/C=C/c1ccc(Cl)cc1 |
| 24 | C/C(=C\c1ccccc1)C(=O)N1Cc2c(cc(I)c(OCC(=O)OCc3ccccc3)c2I)C[C@H]1C(=O)O |
| 36 | N#C/C(=C\c1ccccc1)C(=O)N1Cc2c(cc(I)c(OCC(=O)OCc3ccccc3)c2I)C[C@H]1C(=O)O |
| 25 | COc1cccc(COc2c(I)cc3c(c2I)CN(C(=O)/C=C/c2cc(OC)c(OC)c(OC)c2)[C@H](C(=O)O)C3)c1 |
